What was measured:
Assay type in all cases: cell-based
GT1b-Con1 replicon = assay: Stable replicon assay, comparison to daclatasvir, GT1b-Con1; details: Hepatitis C virus; Replicon GT1b-Con1, NS5A genotype 1b
Description: Stable HCV replicon cell lines were grown in complete media (Dulbecco's modified Eagle medium [DMEM], 2 mM L-glutamine, 0.1 mM essential amino acids, 1 mM sodium pyruvate, 10% fetal bovine serum) with the addition 500 μg/ml […] (G418). Huh7-lunet cells were maintained in the same medium without the addition of G418. Cells were routinely passaged at a dilution of 1:5 two times per week. For stable replicon assays (GT1a-H77, GT1b-Con1, GT2a-JFH, GT2a-J6, GT2a-2b-MD2b, GT2a-2b-J8, GT2a-3a-S52, GT3a-552, GT4a-ED43, GT2a-5a-SA13, GT2a-6a-EUKH2, GT2a-6a-HK6a, and GT2a-7a-QC69), an 8-point 3-fold or half-log dilution series of compound was transferred into three replica 96-well plates containing 1×10^4 cells per well in phenol red-free complete media without G418. For the transient replication assay, Huh7-lunet cells in ice-cold phosphate buffered saline (PBS) were electroporated (Bio-Rad Gene pulser: 950 uF, 270V) with 10 μg purified in vitro transcribed HCV replicon RNA, followed by resuspension in phenol red-free complete media without G418 and plating (1×10^4 cells in 200 μL media/well) into three replica 96-well plates prior to compound addition (1 μl compound per well). For stable and transient replicon assays, luciferase activity of compound-treated cells was measured relative to DMSO-treated cells after 72 h incubation using RENILLA-GLO™ Luciferase Assay (Promega). […]

[1] = test system: HCV genotype 1a replicon, NS5A M28V Y93C; assay: Transient replication assay, GT1a NS5A M28V Y93C; details: Hepatitis C virus
GT2a-2b-J8 replicon = assay: Stable replicon assay, comparison to daclatasvir, GT2a-2b-J8; details: Hepatitis C virus
From the text: (§1) The plasmid pSG-hRlucNeo-JFH1 was generated from pSG-Neo-JFH1 (Kato et al. 2003, Gastroentrology 125:1808-1817). A fragment containing the JFH-1 5′ NTR-hRluc-Neo gene and two unique restriction sites (AgeI and PmeI) was synthesized (Integrated DNA Technologies, Coralville, Iowa). The resulting plasmid was digested with AgeI and PmeI and the excised fragment (5′NTR-hRluc-Neo) was ligated into pSG-Neo-JFH1 digested with the same enzymes to generate pSG-hRlucNeo-JFH1. To allow expression of heterologous NS5A sequences, an NS5A shuttle vector was generated from pSG-Neo-JFH1, in which the entire coding sequence of NS5A plus the first eight codons of NS5B were replaced with an AfeI restriction site. This was done by Infusion cloning (Clontech, Mountain View, Calif.) from two PCR products that were generated using pSG-Neo-JFH1 as a template and the following primer pairs: […]
(§2) Stable HCV replicon cell lines were grown in complete media (Dulbecco's modified Eagle medium [DMEM], 2 mM L-glutamine, 0.1 mM essential amino acids, 1 mM sodium pyruvate, 10% fetal bovine serum) with the addition 500 μg/ml […] (G418). […] For stable and transient replicon assays, luciferase activity of compound-treated cells was measured relative to DMSO-treated cells after 72 h incubation using RENILLA-GLO™ Luciferase Assay (Promega). […]

[2] = test system: HCV genotype 1a replicon, NS5A Y93H; assay: Transient replication assay, GT1a NS5A Y93H; details: Hepatitis C virus
[3] = test system: wild type (wt) HCV genotype 1a replicon; assay: Transient replication assay, HCV genotype 1a wild type (wt); details: Hepatitis C virus; HCV genotype 1a replicon wt
[4] = test system: HCV genotype 1a replicon, NS5A M28V; assay: Transient replication assay, GT1a NS5A M28V; details: Hepatitis C virus
[5] = test system: HCV genotype 1a replicon, NS5A Q30K; assay: Transient replication assay, GT1a NS5A Q30K; details: Hepatitis C virus
GT2a-2a-J6 replicon = assay: Stable replicon assay, comparison to daclatasvir, GT2a-2a-J6; details: Hepatitis C virus
From the text: as §1, §2

[6] = test system: HCV genotype 1a replicon, NS5A M28V Y93H; assay: Transient replication assay, GT1a NS5A M28V Y93H; details: Hepatitis C virus

SMILES	EC50 (GT1b-Con1 replicon) [nM]	EC50 [1] [nM]	EC50 (GT2a-2b-J8 replicon) [nM]	EC50 [2] [nM]	EC50 [3] [nM]	EC50 [4] [nM]	EC50 [5] [nM]	EC50 (GT2a-2a-J6 replicon) [nM]	EC50 [6] [nM]
COC(=O)N[C@H](C(=O)N1C[C@]2(CCCOC2)C[C@H]1c1ncc(-c2ccc(-c3ccc4c(ccc5nc([C@@H]6C[C@@H]7CCC[C@@H]7N6C(=O)[C@@H](NC(=O)OC)C(C)C)[nH]c54)c3)cc2)[nH]1)C(C)C [Compound 16]	0.008	1	9.9	10	0.0014	0.0015	0.05	0.49	15
COC(=O)N[C@H](C(=O)N1CCC[C@H]1c1nc(-c2ccc(-c3ccc(-c4c[nH]c([C@@H]5CCCN5C(=O)[C@@H](NC(=O)OC)C(C)C)n4)cc3)cc2)c[nH]1)C(C)C [Daclatasvir, reference compound]	0.02	3.5	20	65	0.0083	0.0073	7.9	5.8	17.5
